The text below walks through data of patent publication US20180280340A1, “METHOD OF TREATING AND PREVENTING INFECTIONS” (priority 2017, published 2018).

Bounds are passed on as bounds.

For one test, the system named is G. vaginalis biofilm. Put plainly: biofilm production inhibition, colorimetric biofilm staining. It counts as cell-based, Gardnerella vaginalis. As for the experimental part:
As a second step, the concentrations, which inhibited biofilm production, were determined. Several concentrations of BPO were tested: 0, 31.25, 62.5, 125, and 250 μg/mL. A colorimetric method was used for biofilm staining and to determine the biofilm integrity percent after the treatment. Note that in this test, the prototype of the vaginal gel was not used, but a DMSO solution of PBO (solution required for 96-well microplate) was used. Consequently, the inhibitory concentration for G. vaginalis found in this test cannot be compared with the inhibitory concentrations for BPO-gel as found in the previous experiments (Xu et al., 2013).

For test [1], the system named is G. vaginalis. In words: bacterial cells viability under sub-MIC BPO treatment. It counts as cell-based, Gardnerella vaginalis. As to conditions: highest sub-MIC concentration of 250 μg/mL.
Test [2] relates to G. vaginalis. Put plainly: broth microdilution assay to determine MIC and sub-MICs of BPO. As to conditions: Gardnerella vaginalis, DMSO solution of BPO, read-out: concentration required to completely inhibit the growth of G. vaginalis (MIC). The format is cell-based. The text has this: Experimental Details: At a first step of the experiment, a broth microdilution assay was used to determine MIC and sub-MICs of BPO against G. vaginalis, a leading microorganism responsible for Bacterial Vaginosis. […] Note that in this test, the prototype of the vaginal gel was not used, but a DMSO solution of PBO (solution required for 96-well microplate) was used. Consequently, the inhibitory concentration for G. vaginalis found in this test cannot be compared with the inhibitory concentrations for BPO-gel as found in the previous experiments (Xu et al., 2013).
On the technique in general: Dilution methods test growth across graded concentrations, often in twofold steps.

For `O=C(OOC(=O)c1ccccc1)c1ccccc1` [BPO, Benzoyl peroxide], the biofilm prevention entry in the test on G. vaginalis biofilm (125 μg/mL BPO) was “more than 40%”. The inhibition at 250 µg/mL in the test with G. vaginalis biofilm (Gardnerella vaginalis, 250 μg/mL BPO (sub-MIC), compared with the control, read-out: biofilm formation inhibited) was roughly 80%. The compound further came in with a biofilm integrity in the test with G. vaginalis biofilm (around 250 μg/mL BPO) of 20%. Also, the bacterial cells viability result with G. vaginalis [1] is on record as “not influenced”. Besides, the MIC with G. vaginalis [2] was greater than 250 µg/mL.
